Reference: patent US20260345574A1, “POTENT AND SELECTIVE IRREVERSIBLE INHIBITORS OF IRAK1” (Dana-Farber Cancer Institute, Inc., priority 2022, published 2026)

Columns and labels:
IRAK1 = IRAK1 (Homo sapiens, UniProt P51617); assay: Adapta Universal Kinase Assay (ThermoFisher) against IRAK1; format: biochemical; conditions: Histone H3 (1-20) peptide substrate, 60 minutes at room temperature
Method: To measure the IC50 values of the compounds herein against IRAK1, the Adapta Universal Kinase Assay (ThermoFisher) was used. Briefly, 100 nL of different concentrations of the compounds in 100% DMSO were added to each well of a 384-well plate (Corning Cat. #4512). 2.4 μL of 30 mM HEPES, 2.5 μL of 4× ATP solution (in water), and 5 μL of 2× IRAK1/Histone H3 (1-20) peptide mixture (prepared in 50 mM HEPES pH 7.5, 0.01% BRIJ-35, 10 mM MgCl2, 1 mM EGTA) were added to each well. The plate was shaken for 30 seconds and centrifuged for 1 minute at 1000×g. The plate was then incubated at room temperature for 60 minutes. 5 μL of Detection Mix was added to each well. The plate was shaken for 30 seconds and centrifuged for 1 minute at 1000×g. The plate was then incubated at room temperature for 60 minutes. The plate was subsequently read on a fluorescence plate reader, and the emissions ratio was calculated to determine the ratio of ATP to ADP. Emissions Ratio=AF647 Emission (665 nm)/Europium Emission (615 nm).

IRAK4 = biological target: T1, IRAK4 (Homo sapiens, UniProt Q9NWZ3); assay: Z'-LYTE assay (ThermoFisher) against IRAK4; format: biochemical; conditions: Ser/Thr 07 substrate, 60 minutes at room temperature
T1 sequence (Q9NWZ3 1-460): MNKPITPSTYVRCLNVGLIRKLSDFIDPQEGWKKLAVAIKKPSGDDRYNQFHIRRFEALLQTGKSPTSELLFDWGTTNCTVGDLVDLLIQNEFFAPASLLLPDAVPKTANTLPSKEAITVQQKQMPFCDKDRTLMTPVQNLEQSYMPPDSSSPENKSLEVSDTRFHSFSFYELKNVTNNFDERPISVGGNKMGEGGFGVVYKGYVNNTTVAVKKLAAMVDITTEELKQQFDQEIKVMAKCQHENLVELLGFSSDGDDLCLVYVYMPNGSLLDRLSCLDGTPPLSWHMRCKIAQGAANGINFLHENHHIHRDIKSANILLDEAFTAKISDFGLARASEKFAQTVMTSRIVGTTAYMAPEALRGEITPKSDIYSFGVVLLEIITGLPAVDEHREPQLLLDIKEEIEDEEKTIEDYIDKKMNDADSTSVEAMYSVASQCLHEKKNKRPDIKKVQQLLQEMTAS
Method: To measure the IC50 values of compounds herein against IRAK4, a Z′-LYTE assay (ThermoFisher) was used. Briefly, 2.5 μL of different concentrations of the compounds in 1% DMSO were added to 2.4 μL kinase buffer (50 mM HEPES pH 7.5, 0.01% BRIJ-35, 10 mM MgCl2, 1 mM EGTA) in each well of a 384-well plate (Corning Cat. #3676). 5 μL of 2× IRAK4/Ser/Thr 07 mixture (prepared in 50 mM HEPES pH 7.5, 0.01% BRIJ-35, 10 mM MnCl2, 2 mM DTT, and 0.02% NaN3) and 2.5 μL of 4× ATP solution (4× ATP, 50 mM HEPES, pH 7.5, 0.01% BRIJ-35, 10 mM MgCl2, 1 mM EGTA) were added to each well. The plate was shaken for 30 seconds, and then incubated at room temperature for 60 minutes. 5 μL of a 1:100000 dilution of Development Reagent A was added to each well. The plate was shaken for 30 seconds and incubated for 60 minutes at room temperature. The plate was subsequently read on a fluorescence plate reader, and the emissions ratio was calculated to determine the ratio of Ser/Thr 07 phosphorylated by the reaction. Emissions Ratio=Coumarin Emission (443 nm)/Flourescein Emission (520 nm).

Chain of IRAK1 (P51617 whole entry): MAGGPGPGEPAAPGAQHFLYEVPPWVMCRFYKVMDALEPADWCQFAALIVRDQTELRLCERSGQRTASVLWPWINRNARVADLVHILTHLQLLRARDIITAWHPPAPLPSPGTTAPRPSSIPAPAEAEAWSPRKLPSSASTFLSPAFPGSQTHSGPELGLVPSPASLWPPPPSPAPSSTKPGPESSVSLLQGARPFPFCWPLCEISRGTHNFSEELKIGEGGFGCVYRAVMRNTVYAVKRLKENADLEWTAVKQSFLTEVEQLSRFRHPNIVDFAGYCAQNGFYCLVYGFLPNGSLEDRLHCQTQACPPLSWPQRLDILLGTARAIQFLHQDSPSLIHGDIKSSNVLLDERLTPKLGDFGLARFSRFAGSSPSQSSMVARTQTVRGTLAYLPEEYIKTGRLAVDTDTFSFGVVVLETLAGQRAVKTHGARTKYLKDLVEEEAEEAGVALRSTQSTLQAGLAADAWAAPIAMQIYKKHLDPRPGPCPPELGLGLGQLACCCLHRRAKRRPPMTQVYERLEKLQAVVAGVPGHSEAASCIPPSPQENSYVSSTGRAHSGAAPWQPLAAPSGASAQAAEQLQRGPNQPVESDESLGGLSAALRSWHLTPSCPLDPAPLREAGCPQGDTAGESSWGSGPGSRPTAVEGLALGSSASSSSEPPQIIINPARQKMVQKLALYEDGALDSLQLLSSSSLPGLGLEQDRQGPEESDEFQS

Structure (SMILES): C=CC(=O)N1C[C@@H](c2nc(-c3ccc(NC(=O)c4cccc(-c5ccn[nH]5)n4)nc3)no2)C[C@@H](C(F)(F)F)C1 [Compound 062]
- IC50 (IRAK1): 94.2 nM
- IC50 (IRAK4): > 10000 nM

Structure (SMILES): C=CC(=O)N1CC2(CC(c3nc(-c4ccc(NC(=O)c5cccc(-c6ccn[nH]6)n5)cc4)no3)C2)C1 [Compound 077]
- IC50 (IRAK4): > 10000 nM

Structure (SMILES): C=CC(=O)N1CCC[C@H](c2nc(-c3ccc(NC(=O)c4cccc(-c5[nH]ncc5Cl)n4)cc3)no2)C1 [Compound 086, (S)-N-(4-(5-(1-acryloylpiperidin-3-yl)-1,2,4-oxadiazol-3-yl)phenyl)-6-(4-chloro-1H-pyrazol-5-yl)picolinamide]
- IC50 (IRAK1): 9.16 nM
- IC50 (IRAK4): > 10000 nM

Structure (SMILES): C=CC(=O)N1CCC[C@H](c2nc(-c3ccc(NC(=O)c4cccc(-c5ccn[nH]5)n4)c(OC)c3)no2)C1 [Compound 084, (S)-N-(4-(5-(1-acryloylpiperidin-3-yl)-1,2,4-oxadiazol-3-yl)-2-methoxyphenyl)-6-(1H-pyrazol-5-yl)picolinamide]
- IC50 (IRAK1): 1.67 nM
- IC50 (IRAK4): 204 nM

Structure (SMILES): C=CC(=O)N1CCC[C@H](C(=O)Nc2ccc(-c3cnc(-c4cccc(-c5ccn[nH]5)n4)[nH]3)cc2)C1 [Compound 070, (S)-N-(4-(2-(6-(1H-pyrazol-5-yl)pyridin-2-yl)-1H-imidazol-5-yl)phenyl)-1-acryloylpiperidine-3-carboxamide]
- IC50 (IRAK1): 1200 nM
- IC50 (IRAK4): 3330 nM

Structure (SMILES): C=CC(=O)N1CCC[C@H](c2nc(-c3ccc(NC(=O)c4cccc(-c5[nH]ncc5Cl)n4)c(F)c3)no2)C1 [Compound 089, (S)-N-(4-(5-(1-acryloylpiperidin-3-yl)-1,2,4-oxadiazol-3-yl)-2-fluorophenyl)-6-(4-chloro-1H-pyrazol-5-yl)picolinamide]
- IC50 (IRAK1): 21.1 nM
- IC50 (IRAK4): > 10000 nM

Structure (SMILES): C=CC(=O)N1CCC[C@H](C(=O)Nc2ccc(-c3ncc(-c4cccc(-c5ccn[nH]5)n4)s3)nc2)C1 [Compound 023]
- IC50 (IRAK1): 6.07 nM
- IC50 (IRAK4): 244 nM

Structure (SMILES): C=CC(=O)N1C[C@@H](c2nc(-c3ccc(NC(=O)c4cccc(-c5ccn[nH]5)n4)cc3)no2)CC(F)(F)C1 [Compound 082]
- IC50 (IRAK1): 17.6 nM
- IC50 (IRAK4): > 10000 nM

Structure (SMILES): C=CC(=O)N1CCC[C@H](c2nc(-c3ccc(NC(=O)c4cccc(-c5ccn[nH]5)n4)c(OC(F)(F)F)c3)no2)C1 [Compound 081, (S)-N-(4-(5-(1-acryloylpiperidin-3-yl)-1,2,4-oxadiazol-3-yl)-2-(trifluoromethoxy)phenyl)-6-(1H-pyrazol-5-yl)picolinamide]
- IC50 (IRAK1): 9 nM
- IC50 (IRAK4): 794 nM

Structure (SMILES): C=CC(=O)N1CCC[C@H](c2nc(-c3ccc(NC(=O)c4cccc(-c5[nH]ncc5C)n4)nc3)no2)C1 [Compound 006, (S)-N-(5-(5-(1-acryloylpiperidin-3-yl)-1,2,4-oxadiazol-3-yl)pyridin-2-yl)-6-(4-methyl-1H-pyrazol-5-yl)picolinamide]
- IC50 (IRAK1): 8.21 nM
- IC50 (IRAK4): > 10000 nM

Structure (SMILES): C=CC(=O)N1CCC[C@H](c2nc(-c3ccc(NC(=O)c4cccc(-c5ccn[nH]5)n4)c(F)c3)no2)C1 [Compound 076, (S)-N-(4-(5-(1-acryloylpiperidin-3-yl)-1,2,4-oxadiazol-3-yl)-2-fluorophenyl)-6-(1H-pyrazol-5-yl)picolinamide]
- IC50 (IRAK1): 16.4 nM
- IC50 (IRAK4): > 10000 nM

Structure (SMILES): C=CC(=O)N1CC2CC1[C@@H](c1nc(-c3ccc(NC(=O)c4cccc(-c5[nH]ncc5C)n4)nc3)no1)C2 (stereo partly drawn) [Compound 010, N-(5-(5-((6S)-2-acryloyl-2-azabicyclo[2.2.1]heptan-6-yl)-1,2,4-oxadiazol-3-yl)pyridin-2-yl)-6-(4-methyl-1H-pyrazol-5-yl)picolinamide]
- IC50 (IRAK1): 5.11 nM
- IC50 (IRAK4): > 10000 nM

Structure (SMILES): C=CC(=O)N1CCC[C@H](c2nc(-c3ccc(NC(=O)c4cccc(-c5ccn[nH]5)n4)cn3)no2)C1 [Compound 061, (S)-N-(6-(5-(1-acryloylpiperidin-3-yl)-1,2,4-oxadiazol-3-yl)pyridin-3-yl)-6-(1H-pyrazol-5-yl)picolinamide]
- IC50 (IRAK1): 84.3 nM
- IC50 (IRAK4): > 10000 nM

Structure (SMILES): C=CC(=O)N1CC(c2nc(-c3ccc(NC(=O)c4cccc(-c5ccn[nH]5)n4)nc3)no2)CC(F)(F)C1 (centres unmarked) [Compound 002, N-(5-(5-(1-acryloyl-5,5-difluoropiperidin-3-yl)-1,2,4-oxadiazol-3-yl)pyridin-2-yl)-6-(1H-pyrazol-5-yl)picolinamide]
- IC50 (IRAK1): 6.42 nM
- IC50 (IRAK4): > 10000 nM

Structure (SMILES): C=CC(=O)N1CC(c2nc(-c3ccc(NC(=O)c4cccc(-c5[nH]ncc5C)n4)nc3)no2)CC(F)(F)C1 (centres unmarked) [Compound 007, N-(5-(5-(1-acryloyl-5,5-difluoropiperidin-3-yl)-1,2,4-oxadiazol-3-yl)pyridin-2-yl)-6-(4-methyl-1H-pyrazol-5-yl)picolinamide]
- IC50 (IRAK1): 3.98 nM
- IC50 (IRAK4): > 10000 nM

Structure (SMILES): C=CC(=O)N1CCC[C@H](c2nc(-c3ccc(NC(=O)c4cccc(-c5cc(C#N)n(C)c5)n4)cc3)no2)C1 [Compound 087]
- IC50 (IRAK1): 5720 nM
- IC50 (IRAK4): > 10000 nM

Structure (SMILES): C=CC(=O)N1CCC[C@H](c2nc(-c3ccc(NC(=O)c4cccc(-c5[nH]ncc5C)n4)c(F)c3)no2)C1 [Compound 088, (S)-N-(4-(5-(1-acryloylpiperidin-3-yl)-1,2,4-oxadiazol-3-yl)-2-fluorophenyl)-6-(4-methyl-1H-pyrazol-5-yl)picolinamide]
- IC50 (IRAK1): 12.7 nM
- IC50 (IRAK4): > 10000 nM

Structure (SMILES): C=CC(=O)N1CCC[C@H](c2nc(-c3ccc(NC(=O)c4cccc(-c5ccn[nH]5)n4)nc3)no2)C1 [Compound 001, (S)-N-(5-(5-(1-acryloylpiperidin-3-yl)-1,2,4-oxadiazol-3-yl)pyridin-2-yl)-6-(1H-pyrazol-5-yl)picolinamide]
- IC50 (IRAK1): 19.8 nM
- IC50 (IRAK4): > 10000 nM

Structure (SMILES): C=CC(=O)N1C[C@@H](c2nc(-c3ccc(NC(=O)c4cccc(-c5ccn[nH]5)n4)cc3)no2)C[C@H](C(F)(F)F)C1 [Compound 083]
- IC50 (IRAK1): 209 nM
- IC50 (IRAK4): > 10000 nM

Structure (SMILES): C=CC(=O)N1CC(c2nc(-c3ccc(NC(=O)c4cccc(-c5[nH]ncc5C)n4)c(F)c3)no2)CC(F)(F)C1 (centres unmarked) [Compound 093, N-(4-(5-(1-acryloyl-5,5-difluoropiperidin-3-yl)-1,2,4-oxadiazol-3-yl)-2-fluorophenyl)-6-(4-methyl-1H-pyrazol-5-yl)picolinamide]
- IC50 (IRAK1): 8.3 nM
- IC50 (IRAK4): > 10000 nM

Structure (SMILES): C=CC(=O)N1C[C@@H](c2nc(-c3ccc(NC(=O)c4cccc(-c5ccn[nH]5)n4)cc3)no2)C[C@@H](C(F)(F)F)C1 [Compound 078]
- IC50 (IRAK1): 521 nM
- IC50 (IRAK4): > 10000 nM

Structure (SMILES): C=CC(=O)N1CCC[C@H](C(=O)Nc2ccc(-c3ncc(-c4cccc(-c5ccn[nH]5)n4)o3)nc2)C1 [Compound 022]
- IC50 (IRAK1): 5.35 nM
- IC50 (IRAK4): 376 nM

Structure (SMILES): C=CC(=O)N1C[C@@H](c2nc(-c3ccc(NC(=O)c4cccc(-c5ccn[nH]5)n4)nc3)no2)C[C@H](C(F)(F)F)C1 [Compound 064]
- IC50 (IRAK1): 30.4 nM
- IC50 (IRAK4): > 10000 nM

Structure (SMILES): C=CC(=O)N1CCC[C@H](c2nc(-c3ccc(NC(=O)c4cccc(-c5ccn[nH]5)n4)c(C(F)(F)F)c3)no2)C1 [Compound 080, (S)-N-(4-(5-(1-acryloylpiperidin-3-yl)-1,2,4-oxadiazol-3-yl)-2-(trifluoromethyl)phenyl)-6-(1H-pyrazol-5-yl)picolinamide]
- IC50 (IRAK1): 8.25 nM
- IC50 (IRAK4): 3620 nM

Structure (SMILES): C=CC(=O)N1CCC[C@H](C(=O)Nc2ccc(-c3nnc(-c4cccc(-c5ccn[nH]5)n4)o3)nc2)C1 [Compound 019]
- IC50 (IRAK1): 5 nM
- IC50 (IRAK4): 331 nM

Structure (SMILES): C=CC(=O)N1CC2(CC(c3nc(-c4ccc(NC(=O)c5cccc(-c6ccn[nH]6)n5)cc4)no3)C2)C1 [Compound 091]
- IC50 (IRAK4): 4970 nM
